Key:
mucositis = assay: Amifostine oral rinse in a patient subject to chemotherapy (prevention/treatment of mucositis); format: in vivo, human; details: for safety of administration: 200 mg WR-2721 (10 ml 0.09 M) or 125 mg WR-1065 (10 ml 0.09 M)
Method: In this example, a patient is subject to chemotherapy as part of a treatment plan for head and neck cancer. The patient presents multiple squamous cell carcinoma tumors in the throat and larynx. The patient is administered amifostine for use after each chemotherapy session (e.g., for oral rinse within 15 minutes to two hours after chemotherapy).
The amifostine is administered to the patient in the formulation described above (Table 2). […] The patient rinses for approximately one minute and thereafter, expels/discards the rinse. The rinse process can be repeated.

mouth mucosa cells = assay: Uptake of drug / WR-1065 into mouth mucosa cells after oral rinse; format: in vivo, human
Method: Specifically, 125 mg of amifostine is provided as an oral rinse. The patient rinses for approximately one minute and thereafter, expels/discards the rinse. The rinse process can be repeated.

[1] = after amifostine injection; animal study; cited from earlier work
[2] = system: epirubicin-induced oral mucositis; details: patients with epirubicin-induced oral mucositis; cited from earlier work
[3] = following intravenous administration; cited from earlier work
[4] = cited from earlier work

WR-1065 concentration in washed, isolated, vital mouth mucosa cells (mouth mucosa cells) | Compound | safety of administration (mucositis) | systemic side-effects (mucositis; oral rinse) | tolerability (mucositis; oral rinse) | time of maximum tissue concentrations of WR-1065 [1] | difference between patients given amifostine oral rinse and control [2] | clearance from the plasma [3] | pH of maximal rate of hydrolysis ([4]; hydrolysis of amifostine to WR-1065 and inorganic phosphate) | hydrolysis at neutral pH ([4]; over four hours at room temperature) | stability at gastric pH ([4]; pH from 1 to 3)
3.7-19.9 ng/10^5 cells | NCCCNCCS [WR-1065] | can be safely administered | no systemic side-effects are observed | well-tolerated | five to fifteen |  |  |  |  | 
 | NCCCNCCSP(=O)(O)O [amifostine, S-2-(3-aminopropylamino) ethyl dihydrogen phosphorothioate] | can be safely administered |  |  |  | no significant difference | rapidly cleared | 3.0 | no detectable hydrolysis | unstable
